# Data from patent publication US5976523A, “Method for healing compromised tissues using pyrimidine derivatives” (Mitsui Pharmaceuticals, Inc., priority 1995, dated 1999).
# Structures can show the parent of a compound that is named as a salt.
# Tests used:
# [1] = system: primary cultured gastric mucosal cells; test: Wound repair model with primary cultured gastric mucosal cells; type: cell-based, rabbit
# Description: Primary cultured gastric mucosal cells were prepared by mechanically peeling and mincing the gastric mucosa of a rabbit having a body weight of 2 kg and then digesting the minced gastric mucosa with 0.07% collagenase. The primary cultured gastric mucosal cells were cultured at a cell concentration of 3.3×10^5 cells/ml in F-12 culture medium containing 10% fetal calf serum added therein. For this cultivation, a culture dish (60 mm in diameter) coated with collagen type I was used. […] Using an anti-BrdU antibody, the cells in the S phase were stained to identify proliferated cells.
# Their effects on the process of restoration were measured under the above-described parameters. […] In each of the control group and the medicament-added groups, the area of the wounded region was measured at the 0th hour, 12th hour, 24th hour, 36th hour and 48th hour. The measurement results will be given in this order.
# The control group and the groups added with the medicament at the respective concentrations were each subjected to the experiment with n=5. The results will each be presented as a (mean±S. D.) mm2. A test of significance was conducted relative to the control group. * stands for p<0.05, ** for p<0.01, *** for p<0.001. A further test of significance was conducted relative to a group added with 10 ng/ml of EGF. + stands for p<0.05, and ++ for <0.01.
# [2] = system: hepatocytes; test: DNA and protein synthesis in primary cultured hepatocytes; type: cell-based, SD rat
# Excerpt: (§1) As fulminant hepatitis may develop hepatocellular regeneration failure despite a high HGF concentration in blood, use of a medicament capable of enhancing effects of a growth factor is desired. Activities of a compound according to the present invention as a hepatic medicine were investigated using primary cultured cells and Ito (star) cells of rat.
# An SD male rat of about 200 g in body weight was sacrificed by perfusion of collagenase-containing physiological saline. Hepatocytes were immediately collected and then spread at 5.0×10^4 cells/cm^2 over plates, followed by the initiation of cultivation. Two hours later, the culture medium was replaced by a fresh supply of the culture medium. Twenty-four hours later, EGF and [^3 H]-leucine (1 μCi/ml) were added to half the number of the plates with or without addition of 2-piperidino-7-methyl-6-oxo-5,6-dihydro(7H)pyrro[2,3-d]pyrimidine maleate, respectively. At the same time, EGF was added to the remaining plates with or without addition of the invention compound, respectively. Forty-six hours later, the latter plates were both added further with [^3 H]-tymidine (2 μCi/ml). Forty-eight hours later, each culture was filtered under suction to harvest the cells so cultivated. Trichloroacetic acid (TCA) was added to the thus-harvested cells to obtain a TCA precipitate. The TCA precipitate was formed into a pellet. The pellets which had been obtained from the [^3 H]-tymidine-added cultures, respectively, were each dissolved with 0.1N NaOH. The resulting solution was added to a liquid scintillator and the amount of DNA synthesized by the cells was measured by a liquid scintillation counter. Likewise, the pellets which had been obtained from the [^3 H]-leucine-added cultures, respectively, were each boiled at 70° C. to extract soluble matter. The extract so obtained was also added with TCA to obtain a TCA precipitate. The TCA precipitate was dissolved with 0.1N NaOH. The resulting solution was added to the liquid scintillator and the amount of proteins synthesized by the cells was measured by the liquid scintillation counter.
# [3] = system: Ito (star) cells; test: DNA and collagen synthesis and αSM expression in Ito (star) cells; type: cell-based, SD rat
# Excerpt: as §1
# On the other hand, an SD male rat of about 300 g in body weight was sacrificed by perfusion of physiological saline containing collagenase and proteinase. Ito (star) cells were collected and then spread at 1.25×10^5 cells/cm^2 over plates, followed by the initiation of cultivation. The cultivation was conducted for 6 days. In a manner similar to the procedures described above, some of the plates were added with the invention compound and [^3 H]-leucine 24 hours before harvest, while the remaining plates were added with the invention compound 24 hours before harvest and were then added with [^3 H]-tymidine two hours before the harvest. The synthesized amount of DNA and that of proteins were measured. Further, after Ito cells were cultured for 6 days, the invention compound and b-FGF were added. Subsequent to cultivation for 30 minutes, […] of ascorbic acid and 0.5 mM of β-aminopropionitrile fumarate were added, followed by cultivation for 1 hour. [2,3-^3 H]-proline (10 μCi/ml) was added, followed by further cultivation for 24 hours. The culture was separated into the culture medium and the resultant cells, and a TCA precipitate was formed. After the precipitate was dissolved with 0.1N NaOH, the cells were incubated in the presence of bacterial collagenase. The reaction was terminated with TCA-tannic acid, followed by the formation of a pellet. A supernatant fraction was added to the liquid scintillator and the amount of proteins synthesized by the cells was measured by the liquid scintillation counter.
# [4] = system: bone defect (tibia); test: Rat bone defect model, formation of hyaline cartilage matrix; type: in vivo; conditions: bFGF (0.5 μg) pellet, 7th day
# Excerpt: Action of 2-piperazino-6-methyl-5-oxo-5,6-dihydro(7H)pyrro[3,4-d]pyrimidinemaleate on in vivo chondrogenesis was studied in detail by preparing a rat bone defect model which permits observation of bFGF-derived formation of a hyaline cartilage matrix. Embedment of a bFGF-containing pellet in a bone defect of the model permits easy observation of formation of a hyaline cartilage matrix under the periosteum around the bone defect. Rats were divided into three groups. The rats in one of the groups were each embedded in a formed bone defect (diameter: 2.6 mm) thereof with a hydroxyethyl methacrylate pellet (10 mg) which contained bFGF (0.5 μg). The rats in another one of the groups were each embedded likewise with a hydroxyethyl methacrylate pellet (10 mg) which contained bFGF (0.5 μg) and the invention compound (0.5 mg). The rats in the remaining group, that is, a control group were each embedded similarly with a pellet which contained physiological saline. After the rats in all the three groups were sacrificed seven days later, action of bFGF or the invention compound on the process of chondrogenesis on enchondral ossification around the bone defect was investigated. On the 7th day after the formation of the bone defect, the tibia of each rat was histologically examined around the bone defect.
# [5] = system: CAMs (chorioallantoic membranes); test: Angiogenesis on chorioallantoic membranes (CAM); type: in vivo, chick; conditions: day 3
# Description: For a bFGF, various assay systems assessing the angiogenesis activity of the bFGF as an index are usable. The shells of chick embryos are fenestrated centrally corresponding to the air spaces thereof, whereby the chorioallantoic membranes (CAMS) are exposed. Solutions of the bFGF and a test medicament at various concentrations were applied onto the respective CAMs. Incubation was continued. Several days later, the degrees of angiogenesis were investigated under a microscope. This method is preferably employed. […] The test medicament is therefore found to be useful for the reduction of a time required for the construction of a skin-equivalent tissue. […] Also with respect to a VEGF, its angiogenesis activity can be assayed in a similar system.
# The shells of eggs on the 10th day after fertilization were fenestrated centrally corresponding to air spaces thereof, whereby CAMs (chorioallantoic membranes) were exposed. A nylon film in the form of a square of 3 mm in side was placed over the CAM, and onto the nylon film, a solution of bFGF as a growth and/or differentiation factor or the pyrimidine compound according to the present invention was dropped in an amount of 8 ul. Incubation was continued at 38° C. On the 72nd hour, the eggs were moved to a cool place controlled at 4° C. After the eggs were left over for 2 to 3 hours there, the degree of angiogenesis in each egg was investigated under a microscope. The angiogenesis was determined based on the number of radial blood vessels equal to or larger than 0.1 mm in diameter. Onto the nylon disk placed over the CAMS, 1, 10, and 100 ng/ml solutions of recombinant human bFGF (product of Genzyme Corporation) in physiological saline and 0.01 to 1 mM solutions of the individual pyrimidine compound in physiological saline were applied singly or in combination.
# [6] = 1 μM to 100 μM, irrespective of b-FGF
molecule,measurement,setting,value
"CN1C(=O)Cc2cnc(N3CCCCC3)nc21 [Compound A, 2-piperidino-7-methyl-6-oxo-5,6-dihydro(7H)pyrro[2,3-d]pyrimidine maleate]",area of the wounded region (mean±S.D.),"[1]; EGF + 0.01 mM compound, 0th hour",2.06±0.05 mm2
same,area of the wounded region (mean±S.D.),"[1]; EGF + 0.01 mM compound, 12th hour",0.72±0.36 mm2
same,area of the wounded region (mean±S.D.),"[1]; EGF + 0.01 mM compound, 24th hour",0.39±0.04 mm2
same,area of the wounded region (mean±S.D.),"[1]; EGF + 0.01 mM compound, 36th hour",0.05±0.04 mm2
same,area of the wounded region (mean±S.D.),"[1]; EGF + 0.01 mM compound, 48th hour",0 mm2
same,area of the wounded region (mean±S.D.),"[1]; EGF + 0.1 mM compound, 0th hour",2.08±0.08 mm2
same,area of the wounded region (mean±S.D.),"[1]; EGF + 0.1 mM compound, 12th hour",0.80±0.04 mm2
same,area of the wounded region (mean±S.D.),"[1]; EGF + 0.1 mM compound, 24th hour",0.24±0.05 mm2
same,area of the wounded region (mean±S.D.),"[1]; EGF + 0.1 mM compound, 36th hour",0 mm2
same,area of the wounded region (mean±S.D.),"[1]; EGF + 0.1 mM compound, 48th hour",0 mm2
same,effect on EGF-induced acceleration of cell restoration,[1]; compound 0.01-0.1 mM with EGF,further promoted the EGF-induced acceleration of cell restoration in a concentration-dependent fashion
same,repairing effects,"[1]; compound alone 0.01-0.1 mM, absence of EGF",did not show repairing effects in the absence of EGF
same,concentration of albumin in the supernatant,"[2]; 10 μM compound, with EGF",no change was observed
same,expression of mRNA (albumin),"[2]; 10 μM compound, with EGF",no change was observed
same,synthesis of DNA by the hepatocytes,"[2]; 10 μM compound, with EGF",significantly increased
same,synthesis of DNA by the hepatocytes,[2]; without EGF,not recognized to promote the synthesis of DNA
same,synthesis of DNA by the star cells,[3]; [6],lowered depending on the amount of the invention compound
same,synthesis of collagen by the star cells,[3]; [6],lowered depending on the amount of the invention compound
same,expression of αSM,"[3]; compound with b-FGF, quantity-dependent",allowed to recover by the addition of the invention compound in a quantity-dependent manner
same,expression of α2-smooth muscle actin (αSM),"[3]; compound, absence of b-FGF",lowered by the addition of the invention compound
bFGF: basic fibroblast growth factor; recombinant human bFGF (product of Genzyme Corporation) in Example 26,formation of a hyaline cartilage matrix,[4],in a small amount
same,number of new blood vessels (M±SE),[5]; bFGF alone 1 ng/ml,4.1±0.4
same,number of new blood vessels (M±SE),[5]; bFGF alone 10 ng/ml,4.3±0.7
same,number of new blood vessels (M±SE),[5]; bFGF alone 100 ng/ml,6.1±1.1
same,expression of αSM,[3]; b-FGF alone,lowered by the presence of b-FGF
